# In PMC12865225 (Clinical and Translational Science, 2026):
# Columns and labels:
# [1] = cited from earlier work
# OATP2B1 = biological target: T1, OATP2B1 (Homo sapiens, UniProt O94956); assay: OATP2B1 inhibition with fluorescent substrate 4′,5′-dibromofluorescein in HEK293 cells; format: cell-based; settings: 1 µM 4′,5′-dibromofluorescein, 5 min, 30 min preincubation
# T1 construct: expressed in transfected cells; host or cells: HEK293 (recombinant baculovirus-mediated transduction)
# T1 sequence (O94956 1-709): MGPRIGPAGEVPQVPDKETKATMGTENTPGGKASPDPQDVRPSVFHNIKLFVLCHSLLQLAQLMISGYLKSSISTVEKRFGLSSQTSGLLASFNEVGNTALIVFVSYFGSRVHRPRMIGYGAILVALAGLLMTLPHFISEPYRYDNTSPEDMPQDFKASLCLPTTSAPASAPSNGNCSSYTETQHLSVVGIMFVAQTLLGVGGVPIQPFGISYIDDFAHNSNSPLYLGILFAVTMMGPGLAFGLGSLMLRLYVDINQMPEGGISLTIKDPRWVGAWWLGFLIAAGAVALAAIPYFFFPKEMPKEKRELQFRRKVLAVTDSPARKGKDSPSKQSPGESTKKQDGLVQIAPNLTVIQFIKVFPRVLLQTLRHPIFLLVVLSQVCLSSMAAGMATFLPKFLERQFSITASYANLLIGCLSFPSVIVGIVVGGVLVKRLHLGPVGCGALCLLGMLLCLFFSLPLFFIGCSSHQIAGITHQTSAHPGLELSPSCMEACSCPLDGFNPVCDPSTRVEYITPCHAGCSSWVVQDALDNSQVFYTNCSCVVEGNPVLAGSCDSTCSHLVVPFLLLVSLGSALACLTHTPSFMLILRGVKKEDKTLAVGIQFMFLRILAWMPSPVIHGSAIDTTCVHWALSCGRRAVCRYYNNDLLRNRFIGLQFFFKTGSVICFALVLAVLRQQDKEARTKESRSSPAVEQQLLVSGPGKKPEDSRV
# Description: 8- (2- [Fluoresceinyl]aminoethylthio)adenosine- 3', 5'- cyclic monophosphate (8-Fluo-cAMP) was acquired from Biolog Life Science Institute (Bremen, Germany), 4′,5′-dibromofluorescein was acquired from Sigma-Aldrich (St. Louis, MO, USA) and 2′,7′-dichlorofluorescein was acquired from Santa Cruz Biotechnology (Dallas, TX, USA).
# Inhibition studies with fluorescent substrates in OATP transduced HEK293 cells The concentrations of fluorescent probe substrates were 1 µM 2′,7′-dichlorofluorescein for OATP1B1, 2.5 µM 8-Fluo-cAMP for OATP1B3 and 1 µM 4′,5′-dibromofluorescein for OATP2B1, and these concentrations were selected to be within or below of previously reported […]
# reported linear ranges of transport for these substrate-transporter combinations.1,2,4 8-Fluo-cAMP was dissolved in ultrapure water, while dimethyl sulfoxide (DMSO) was used for all other compounds. […] For the quantification of fluorescent substrates, cells were lysed with 120 µl of lysis solution (1% Triton X-100, 5 mM EDTA, 150 mM sodium chloride and 150 mM TRIC-hydrochloride and adjusted to pH 8 with sodium hydroxide) for 30 min at 300 RPM shaking before transferring 80 µl of samples to a transparent 96-well plate containing 20 µl of 0.5 M sodium hydroxide. […] The plates were measured with a fluorescent plate reader (Varioskan LUX from ThermoFisher Scientific). […]
# [2] = PBPK model input parameters (binding, absorption, distribution, elimination), Simcyp; parameters: species or system human
# Description: The volume of distribution
# at steady-state (Vss), predicted using the Rodgers and Rowland model (Model 2) within the
# oral (PO) data.7–9,11,12,14,24 Only studies with 1000 mg dosing or lower were included in the
# model development and verification due to the possible nonlinear renal clearance of
# (CLH) as a human liver microsomal clearance from the in vivo CLH calculated by subtracting
# the CLR from the total CL. The model for oral dosing was optimized using data from the study
# by Putnam et al. (2005).9 The absorption rate constant (ka) was calculated from the reported
# mean absorption time9 and the fraction absorbed (fa) was optimized manually. The obtained
# Tissue distribution was described using the full-body PBPK model, with the tissue-to-plasma
# partition coefficient (Kp) predicted based on the Rodgers and Rowland method integrated
# within the simulator (Method 2). The Kp value for adipose was optimized manually (0.04 to
# CYP3A4 = settings: model input; cited from earlier work
# [3] = retrograde calculation from CLH (2.65 l/h)
IC50 (OATP2B1) [µM],CLH ([2]; Total CL – CLR) [L/h],"CLu,int,CYP2C9 (µl/min/pmol P450) [2, 3] [µl/min/pmol P450]","CLu,int,CYP3A4 (µl/min/pmol P450) [2, 3] [µl/min/pmol P450]",Compound,decrease of renal clearance by probenecid [1] [fold],increase of C max and AUC by cyclosporine and probenecid [1] [fold],CYP3A4 Indmax (CYP3A4)
37.6,–,–,–,Cc1onc(-c2c(Cl)cccc2Cl)c1C(=O)N[C@@H]1C(=O)N2[C@@H]1SC(C)(C)[C@@H]2C(=O)O [Dicloxacillin],4,< 2,–
76.4,2.65,0.124,0.062,Cc1onc(-c2c(F)cccc2Cl)c1C(=O)N[C@@H]1C(=O)N2[C@@H]1SC(C)(C)[C@@H]2C(=O)O [Flucloxacillin],–,–,4.6
